These results are taken from paper PMC6370762, “Endogenous pore-forming protein complex targets acidic glycosphingolipids in lipid rafts to initiate endolysosome regulation” (Communications Biology, 2019).

The first experiment has as its target T1, βγ-CAT.
T1 construct: gene BmALP1
The note with it: PBS pH 7.4, 37 °C; 1:1 global fit; gangliosides bind the BmALP1 subunit.
On to GM4, for which the Kd (usually the free concentration of one partner at which half of the binding sites on the other are occupied at equilibrium, for simple one-to-one binding) amounted to 46.3 nM.

Regarding GM2, the Kd came to 53.7 nM.

Consider GD3, for which the dissociation constant Kd is 46.7 nM.

Consider GM1, for which the affinity, expressed as Kd, was 30.5 nM.

The substance GM3 had a Kd of 10.2 nM.

GD1b had a Kd of 521 nM.

Turning to GD1a, binding was put at a Kd of 76.3 nM.

GT1b returned a Kd of 527 nM.

The next experiment deals with BmTFF3 (Bombina maxima, UniProt B2BRT2). The note with it: PBS pH 7.4, 37 °C; 1:1 global fit; also bound on lipid overlay strips.
Chain of BmTFF3 (B2BRT2 21-166 limits assumed): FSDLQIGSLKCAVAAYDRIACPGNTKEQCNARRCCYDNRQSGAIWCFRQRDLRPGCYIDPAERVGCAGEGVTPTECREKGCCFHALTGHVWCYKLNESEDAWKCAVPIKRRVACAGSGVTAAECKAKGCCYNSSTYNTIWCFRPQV
sulfatides showed a Kd of around 62.3 nM.

In a further experiment the target is T1, βγ-CAT. The note with it: PBS pH 7.4, 37 °C; 1:1 global fit; site on BmTFF3 subunit.
sulfatides showed a Kd of 65.5 nM.
